Some test systems named below: 786-0 renal; SR leukemia; SK-OV-3 ovarian; SK-MEL-2 melanoma; OVCAR-4 ovarian; HCT-116 colon; COLO 205 colon; HOP-92 NSCLC.
Experiment in all cases: DTP human tumour cell line panel, 48 h

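Five concentrations, 48 hours, 96-well plates. Abbreviation: GI50, concentration required for 50% inhibition of growth. TGI denotes the concentration required for complete inhibition of growth.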 Where only a bound is given, the exact number is not on record here.

One may read the GI50 as the concentration at which growth is held to half of that of the control. As a reminder, the TGI is the concentration at which net growth stops. A higher TGI goes with less potent growth arrest. In the case of `CCCCNC(=O)Oc1ccc(/C(=C(/C)Cc2ccc(OC)cc2)c2ccc(OCCN3CCCC3)cc2)cc1`, the GI50 was 1.51 µM in the test on 786-0 renal; 1.86 µM in the test on SR leukemia; 6.14 µM in the test with SK-OV-3 ovarian; 2.13 µM in the test on SK-MEL-2 melanoma; 1.83 µM in the test on OVCAR-4 ovarian; 1.55 µM in the test on HCT-116 colon. Also, in the test on COLO 205 colon, the GI50 was 1.83 µM. The TGI is 2.91 µM in the test with 786-0 renal; 5.44 µM in the test with SR leukemia; 20.4 µM with SK-OV-3 ovarian; 4.23 µM in the test with SK-MEL-2 melanoma; 4.26 µM with OVCAR-4 ovarian; 2.98 µM in the test on HCT-116 colon. This compound came in with a TGI with COLO 205 colon of 3.57 µM.
Regarding `NCCOc1ccccc1/C=C1\c2ccccc2-c2ccc([N+](=O)[O-])cc21`, the GI50 with 786-0 renal is 1.7 µM; with SK-OV-3 ovarian it was 1.7 µM; with SK-MEL-2 melanoma, 1.8 µM; in the test with HOP-92 NSCLC it was 1.33 µM; with OVCAR-4 ovarian, 1.79 µM; in the test on HCT-116 colon, 1.25 µM. For the same compound, in the test on COLO 205 colon, the GI50 is 1.75 µM. Also, the TGI in the test with 786-0 renal was 3.23 µM; in the test with SK-OV-3 ovarian it was 3.13 µM; in the test on SK-MEL-2 melanoma, 3.34 µM; in the test on HOP-92 NSCLC, 2.75 µM; in the test with OVCAR-4 ovarian it was 3.27 µM; with HCT-116 colon, 2.51 µM. The TGI with COLO 205 colon stood at 3.44 µM.
Regarding `COc1ccc(/C=C2\CN(Cc3cn(CCNc4ccnc5cc(Cl)ccc45)nn3)C/C(=C\c3ccc(OC)c(OC)c3)C2=O)cc1OC`, the GI50 in the test with 786-0 renal is 3.35 µM; in the test with SR leukemia, 2.04 µM; in the test on SK-OV-3 ovarian, 4.66 µM; in the test with SK-MEL-2 melanoma it was 3.88 µM; in the test on OVCAR-4 ovarian it was 4.07 µM; with HCT-116 colon it was 1.95 µM. Also, in the test with COLO 205 colon, the GI50 is 1.99 µM. Also, the TGI with 786-0 renal is 12.4 µM; in the test on SR leukemia, above 100 µM; with SK-OV-3 ovarian, 24.1 µM; in the test with SK-MEL-2 melanoma, 26.6 µM; with OVCAR-4 ovarian it was above 100 µM; with HCT-116 colon, 3.85 µM. The same compound returned a TGI in the test on COLO 205 colon of 3.9 µM.
`c1cncc(C2Nc3cccc4cccc(c34)N2)c1`: the GI50 in the test on 786-0 renal is above 100 µM; with SR leukemia it was 27.5 µM; in the test with SK-OV-3 ovarian it was above 100 µM; with SK-MEL-2 melanoma it was 30.9 µM; in the test on HOP-92 NSCLC, 22.3 µM; in the test on OVCAR-4 ovarian, 13.8 µM. Moreover, the GI50 in the test with HCT-116 colon is 16.5 µM; in the test on COLO 205 colon it was 22.6 µM. The concentration for total growth inhibition (TGI) in the test on 786-0 renal is above 100 µM; with SR leukemia it was above 100 µM; with SK-OV-3 ovarian, above 100 µM; in the test on SK-MEL-2 melanoma, 64.4 µM; in the test on HOP-92 NSCLC it was 61.2 µM; in the test with OVCAR-4 ovarian it was 27.3 µM. For the same compound, the values for the TGI with HCT-116 colon and in the test with COLO 205 colon were 31.6 µM and 46.6 µM, respectively.
Regarding `Cc1ccc(C2=C(c3ccc(C)cc3)C3(c4ccc(C)cc4)C4C(=O)c5ccccc5C(=O)C4C2(c2ccc(C)cc2)S3=O)cc1` (stereo unspecified), the GI50 was 69.5 µM with 786-0 renal; above 100 µM in the test on SK-OV-3 ovarian; above 100 µM with SK-MEL-2 melanoma; 45 µM in the test with OVCAR-4 ovarian; above 100 µM in the test on HCT-116 colon; above 100 µM with COLO 205 colon. The TGI with 786-0 renal, with SK-OV-3 ovarian, in the test on SK-MEL-2 melanoma, in the test with OVCAR-4 ovarian, in the test with HCT-116 colon and in the test on COLO 205 colon was above 100 µM each time.
With `COC(=O)/C=C1/SC(N2N=C(c3cccs3)CC2c2ccc(F)cc2)=NC1=O` (stereo unspecified), the GI50 with 786-0 renal is 3.12 µM; in the test with SR leukemia, 2.23 µM; with SK-OV-3 ovarian, 9.78 µM; in the test with SK-MEL-2 melanoma, 4.04 µM; with HOP-92 NSCLC, 2.4 µM; with OVCAR-4 ovarian, 2.64 µM. For the same compound, the GI50 in the test on HCT-116 colon is 2.05 µM; in the test on COLO 205 colon, 2.15 µM. Besides, the TGI with 786-0 renal came out at 8.61 µM; with SR leukemia, 11.8 µM; with SK-OV-3 ovarian it was 53.9 µM; in the test with SK-MEL-2 melanoma it was 15.6 µM; in the test on HOP-92 NSCLC, 5.67 µM; in the test on OVCAR-4 ovarian, 7.49 µM. In addition, the TGI came to 3.82 µM in the test on HCT-116 colon and 4.27 µM in the test on COLO 205 colon.
In the case of `OCCNCCCOc1ccc2ncnc(Nc3ccc(Oc4cccc(C(F)(F)F)c4)c(Cl)c3)c2c1`, the GI50 is 1.62 µM in the test with 786-0 renal, 1.62 µM with SR leukemia, 1.7 µM in the test with SK-MEL-2 melanoma and 1.05 µM in the test with HOP-92 NSCLC. Moreover, the TGI in the test with 786-0 renal amounted to 3.03 µM; in the test on SR leukemia it was 4.65 µM; in the test on SK-MEL-2 melanoma it was 3.38 µM; in the test with HOP-92 NSCLC, 2.37 µM.
On to `CC(=O)[CH-]C(=O)c1ccccc1.CC(=O)[CH-]C(=O)c1ccccc1.Cl.[O-]c1ccccn1.[O-]c1ccccn1.[Ti+4]`, for which the GI50 in the test with 786-0 renal, in the test with SK-OV-3 ovarian, with SK-MEL-2 melanoma, in the test on OVCAR-4 ovarian and in the test on HCT-116 colon was above 100 µM throughout. Also, the concentration for total growth inhibition (TGI) in the test on 786-0 renal, with SK-OV-3 ovarian, in the test with SK-MEL-2 melanoma, with OVCAR-4 ovarian and in the test on HCT-116 colon was above 100 µM each time.
In the case of `Cc1cc(N2CCCC2)nc(NCc2cc(Nc3ccnc4cc(Cl)ccc34)ccc2F)n1`, the GI50 is 1.34 µM in the test with 786-0 renal; 0.243 µM in the test on SR leukemia; 2.04 µM with SK-OV-3 ovarian; 1.74 µM in the test with SK-MEL-2 melanoma; 1.19 µM in the test on HOP-92 NSCLC; 0.198 µM with HCT-116 colon. Further, the GI50 in the test on COLO 205 colon is 0.278 µM. For the same compound, the TGI with 786-0 renal amounted to 2.84 µM; in the test on SK-OV-3 ovarian, 3.89 µM; in the test with SK-MEL-2 melanoma it was 3.31 µM; in the test on HOP-92 NSCLC it was 2.57 µM; in the test with HCT-116 colon it was 0.557 µM; in the test on COLO 205 colon it was 1.43 µM.
Regarding `COC1C(OC(=O)/C=C/C=C/C=C/C=C\C(=O)O)CCC2(CO2)C1C1(C)OC1CC=C(C)C` (stereo unspecified), the GI50 in the test on 786-0 renal, in the test on SK-OV-3 ovarian, with SK-MEL-2 melanoma, with HOP-92 NSCLC, with OVCAR-4 ovarian and in the test with HCT-116 colon was above 200 µM throughout. The GI50 in the test on COLO 205 colon is above 200 µM. The TGI in the test with 786-0 renal, in the test on SK-OV-3 ovarian, in the test on SK-MEL-2 melanoma, in the test with HOP-92 NSCLC, with OVCAR-4 ovarian and in the test with HCT-116 colon was above 200 µM in each case. The same compound gave a TGI in the test with COLO 205 colon above 200 µM.

(Values after PubChem BioAssay (NCI).)
